Source: patent US8536180B2, “Pyrimidine inhibitors of kinase activity” (AbbVie Inc., priority 2009, dated 2013)
pIC50: −log10 of the molar value.

Molecular target: T1, C-terminal GST-tagged, recombinant, human IGF-1R, amino acids 954-1367 (Homo sapiens, UniProt P08069)
T1 construct: human IGF-1R, amino acids 954-1367 expressed by baculovirus in Sf21 cells; GST (C); purchased Cell Signaling Technology; host or cells: baculovirus in Sf21 cells
Test: IGF-1R homogenous time-resolved fluorescence (HTRF) in vitro kinase assay
Format: biochemical
Details: IGF-1R kinase, ATP 50 μM final, biotinylated peptide substrate 0.5 μM, 60 minutes at room temperature
Description: IGF-1R kinase activity was assayed by a homogenous time-resolved fluorescence (HTRF) in vitro kinase assay (Mathis, G., HTRF(R) Technology. J Biomol Screen, 1999. 4(6): p. 309-314). Specifically, 10 μL C-terminal GST-tagged, recombinant, human IGF-1R, amino acids 954-1367 expressed by baculovirus in Sf21 cells (Cell Signaling Technology) was mixed with 10 μL inhibitor (various concentrations, 2% final DMSO) and 10 μL of ATP (50 μM final concentration) in reaction buffer (50 mM HEPES, pH 7.5, 10 mM MgCl2, 2 mM MnCl2, 0.1% BSA and 1 mM DTT, 40 μL final volume). The reaction was initiated by addition of 10 μL of biotinylated peptide substrate (Biotin-Ahx-[…], 0.5 μM final concentration) in a black 384-well plate (Packard). After 60 minutes incubation at room temperature, the reaction was quenched by addition of 60 μL stop/revelation buffer to give 30 mM EDTA, 1 μg/mL streptavidin-APC (Prozyme), 50 ng/mL anti-phosphotyrosine mAb PT66-K Europium Cryptate, 30 mM HEPES, pH 7.5, 120 mM KF, 0.005% Tween-20, 0.05% BSA). The quenched reaction was allowed to stand at room temperature for 1 hour and then read in a time-resolved fluorescence detector (Envision, Perkin Elmer) at 615 nm and 665 nm simultaneously. The ratio between the signal of 615 nm and 665 nm was used in the calculation of the IC50.

T1 sequence (P08069 954-1367): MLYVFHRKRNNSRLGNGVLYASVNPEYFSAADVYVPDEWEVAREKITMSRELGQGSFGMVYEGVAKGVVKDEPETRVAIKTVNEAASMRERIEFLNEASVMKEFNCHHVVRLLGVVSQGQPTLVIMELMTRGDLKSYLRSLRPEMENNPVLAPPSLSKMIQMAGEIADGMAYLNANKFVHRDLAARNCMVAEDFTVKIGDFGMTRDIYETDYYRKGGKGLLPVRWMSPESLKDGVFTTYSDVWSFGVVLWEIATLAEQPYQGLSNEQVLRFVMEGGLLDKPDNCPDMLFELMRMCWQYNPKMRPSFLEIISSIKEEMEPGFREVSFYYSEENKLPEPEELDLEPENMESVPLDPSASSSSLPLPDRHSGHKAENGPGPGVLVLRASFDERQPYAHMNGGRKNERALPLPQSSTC

Row | pIC50 | Compound
1 | 7.30 to 8.00 | CCn1cc(-c2ccnc(Nc3cccc(CN(C)C)c3)n2)c(-c2ccc3[nH]c(Nc4ccccc4)nc3c2)n1 [Example 62, 5-{4-[2-({3-[(dimethylamino)methyl]phenyl}amino)pyrimidin-4-yl]-1-ethyl-1H-pyrazol-3-yl}-N-phenyl-1H-benzimidazol-2-amine]
2 | < 6.30 | c1ccc(Nc2nccc(-c3c(-c4ccc5nc(Nc6ccccc6)[nH]c5c4)nc4ccccn34)n2)cc1 [Example 19, 6-[3-(2-anilinopyrimidin-4-yl)imidazo[1,2-a]pyridin-2-yl]-N-phenyl-1H-benzimidazol-2-amine]
3 | 7.30 to 8.00 | COc1ccccc1Cc1nc2ccc(-c3nc4sccn4c3-c3ccnc(Nc4ccc(N(C)C)cc4OC)n3)cc2[nH]1 [Example 34, 2-methoxy-N^1-(4-{6-[2-(2-methoxybenzyl)-1H-benzimidazol-6-yl]imidazo[2,1-b][1,3]thiazol-5-yl}pyrimidin-2-yl)-N^4,N^4-dimethylbenzene-1,4-diamine]
4 | 7.30 to 8.00 | COc1ccc(S(C)(=O)=O)cc1Nc1nccc(-c2c(-c3ccc4nc(Cc5ccccc5)[nH]c4c3)nc3ccccn23)n1 [Example 43, 4-[2-(2-benzyl-1H-benzimidazol-6-yl)imidazo[1,2-a]pyridin-3-yl]-N-[2-methoxy-5-(methylsulfonyl)phenyl]pyrimidin-2-amine]
5 | 6.30 to 7.00 | COc1cc(Cl)ccc1Nc1nccc(-c2c(-c3ccc4nc(Cc5ccccc5)[nH]c4c3)nc3ccccn23)n1 [Example 32, 4-[2-(2-benzyl-1H-benzimidazol-6-yl)imidazo[1,2-a]pyridin-3-yl]-N-(4-chloro-2-methoxyphenyl)pyrimidin-2-amine]
6 | < 6.30 | CN(C)Cc1ccccc1Nc1nccc(-c2c(-c3ccc4nc(Cc5ccccc5)[nH]c4c3)nc3sccn23)n1 [Example 58, 4-[6-(2-benzyl-1H-benzimidazol-6-yl)imidazo[2,1-b][1,3]thiazol-5-yl]-N-{2-[(dimethylamino)methyl]phenyl}pyrimidin-2-amine]
7 | 7.30 to 8.00 | COc1cc(NCC(C)(C)O)ccc1Nc1nccc(-c2c(-c3ccc4[nH]c(Cc5ccccc5)nc4c3)nc3ccccn23)n1 [Example 47, 1-{[4-({4-[2-(2-benzyl-1H-benzimidazol-5-yl)imidazo[1,2-a]pyridin-3-yl]pyrimidin-2-yl}amino)-3-methoxyphenyl]amino}-2-methylpropan-2-ol]
8 | 7.30 to 8.00 | COc1cc(N(C)C)ccc1Nc1nccc(-c2c(-c3ccc4nc(Cc5ccccc5)[nH]c4c3)nc3sccn23)n1 [Example 31, N^1-{4-[6-(2-benzyl-1H-benzimidazol-6-yl)imidazo[2,1-b][1,3]thiazol-5-yl]pyrimidin-2-yl}-2-methoxy-N^4,N^4-dimethylbenzene-1,4-diamine]
9 | > 8.00 | COc1ccc(NC(=O)CN(C)C)cc1Nc1nccc(-c2c(-c3ccc4nc(Cc5ccccc5)[nH]c4c3)nc3ccccn23)n1 [Example 53, N^1-[3-({4-[2-(2-benzyl-1H-benzimidazol-6-yl)imidazo[1,2-a]pyridin-3-yl]pyrimidin-2-yl}amino)-4-methoxyphenyl]-N^2,N^2-dimethylglycinamide]
10 | > 8.00 | COc1ccccc1Cc1nc2ccc(-c3nc4sccn4c3-c3ccnc(Nc4ccc(N5CCC(N(C)C)CC5)cc4OC)n3)cc2[nH]1 [Example 55, N-{4-[4-(dimethylamino)piperidin-1-yl]-2-methoxyphenyl}-4-{6-[2-(2-methoxybenzyl)-1H-benzimidazol-6-yl]imidazo[2,1-b][1,3]thiazol-5-yl}pyrimidin-2-amine]
11 | > 8.00 | CN(C)CCc1cccc(Nc2nccc(-c3c(-c4ccc5nc(Cc6ccccc6)[nH]c5c4)nc4sccn34)n2)c1 [Example 7, 4-[6-(2-benzyl-1H-benzimidazol-6-yl)imidazo[2,1-b][1,3]thiazol-5-yl]-N-{3-[2-(dimethylamino)ethyl]phenyl}pyrimidin-2-amine]
12 | 7.00 to 7.29 | CCn1cc(-c2ccnc(Nc3ccc(N4CCC(N(C)C)CC4)cc3OC)n2)c(-c2ccc3[nH]c(Cc4ccccc4Cl)nc3c2)n1 [Example 67, 4-{3-[2-(2-chlorobenzyl)-1H-benzimidazol-5-yl]-1-ethyl-1H-pyrazol-4-yl}-N-{4-[4-(dimethylamino)piperidin-1-yl]-2-methoxyphenyl}pyrimidin-2-amine]
13 | > 8.00 | COc1cc(N2CCC(N(C)C)CC2)ccc1Nc1nccc(-c2c(-c3ccc4nc(Cc5ccccc5Cl)[nH]c4c3)nc3sccn23)n1 [Example 54, 4-{6-[2-(2-chlorobenzyl)-1H-benzimidazol-6-yl]imidazo[2,1-b][1,3]thiazol-5-yl}-N-{4-[4-(dimethylamino)piperidin-1-yl]-2-methoxyphenyl}pyrimidin-2-amine]
14 | > 8.00 | COc1cc(N2CCC(N(C)C)CC2)ccc1Nc1nccc(-c2c(-c3ccc4nc(Cc5ccccc5)[nH]c4c3)nc3sccn23)n1 [Example 30, 4-[6-(2-benzyl-1H-benzimidazol-6-yl)imidazo[2,1-b][1,3]thiazol-5-yl]-N-{4-[4-(dimethylamino)piperidin-1-yl]-2-methoxyphenyl}pyrimidin-2-amine]
15 | > 8.00 | CN(C)CCc1cccc(Nc2nccc(-c3c(-c4ccc5[nH]c(Cc6ccccc6C(F)(F)F)nc5c4)nc4ccccn34)n2)c1 [Example 6, N-{3-[2-(dimethylamino)ethyl]phenyl}-4-(2-{2-[2-(trifluoromethyl)benzyl]-1H-benzimidazol-5-yl}imidazo[1,2-a]pyridin-3-yl)pyrimidin-2-amine]
16 | > 8.00 | COc1ccccc1Cc1nc2ccc(-c3nc4sccn4c3-c3ccnc(Nc4cccc(CCN(C)C)c4)n3)cc2[nH]1 [Example 8, N-{3-[2-(dimethylamino)ethyl]phenyl}-4-{6-[2-(2-methoxybenzyl)-1H-benzimidazol-6-yl]imidazo[2,1-b][1,3]thiazol-5-yl}pyrimidin-2-amine]
17 | 7.00 to 7.29 | CCn1cc(-c2ccnc(Nc3ccc(N4CCC(N(C)C)CC4)cc3OC)n2)c(-c2ccc3[nH]c(Cc4ccccc4OC)nc3c2)n1 [Example 68, N-{4-[4-(dimethylamino)piperidin-1-yl]-2-methoxyphenyl}-4-{1-ethyl-3-[2-(2-methoxybenzyl)-1H-benzimidazol-5-yl]-1H-pyrazol-4-yl}pyrimidin-2-amine]
18 | > 8.00 | CN(C)CCc1cccc(Nc2nccc(-c3c(-c4ccc5[nH]c(Cc6ccccc6Cl)nc5c4)nc4ccccn34)n2)c1 [Example 5, 4-{2-[2-(2-chlorobenzyl)-1H-benzimidazol-5-yl]imidazo[1,2-a]pyridin-3-yl}-N-{3-[2-(dimethylamino)ethyl]phenyl}pyrimidin-2-amine]
19 | 6.30 to 7.00 | O=C1CCCN1c1cccc(Nc2nccc(-c3c[nH]nc3-c3ccc4[nH]c(Cc5ccccc5Cl)nc4c3)n2)c1 [Example 59, 1-{3-[(4-{3-[2-(2-chlorobenzyl)-1H-benzimidazol-5-yl]-1H-pyrazol-4-yl}pyrimidin-2-yl)amino]phenyl}pyrrolidin-2-one]
20 | > 8.00 | COc1cc(N2CCC(N(C)C)CC2)ccc1Nc1nccc(-c2c(-c3ccc4nc(Cc5ccccc5C(F)(F)F)[nH]c4c3)nc3sccn23)n1 [Example 52, N-{4-[4-(dimethylamino)piperidin-1-yl]-2-methoxyphenyl}-4-(6-{2-[2-(trifluoromethyl)benzyl]-1H-benzimidazol-6-yl}imidazo[2,1-b][1,3]thiazol-5-yl)pyrimidin-2-amine]
21 | 6.30 to 7.00 | CN(C)S(=O)(=O)c1cccc(Nc2nccc(-c3c(-c4ccc5nc(Cc6ccccc6)[nH]c5c4)nc4ccccn34)n2)c1 [Example 17, 3-({4-[2-(2-benzyl-1H-benzimidazol-6-yl)imidazo[1,2-a]pyridin-3-yl]pyrimidin-2-yl}amino)-N,N-dimethylbenzenesulfonamide]
22 | 7.30 to 8.00 | CCn1cc(-c2ccnc(Nc3ccc(N4CCC(N(C)C)CC4)cc3OC)n2)c(-c2ccc3[nH]c(Cc4ccccc4)nc3c2)n1 [Example 66, 4-[3-(2-benzyl-1H-benzimidazol-5-yl)-1-ethyl-1H-pyrazol-4-yl]-N-{-4-[4-(dimethylamino)piperidin-1-yl]-2-methoxyphenyl}pyrimidin-2-amine]
23 | 7.00 to 7.29 | COc1ccccc1Nc1nccc(-c2c(-c3ccc4nc(Cc5ccccc5)[nH]c4c3)nc3ccccn23)n1 [Example 15, 4-[2-(2-benzyl-1H-benzimidazol-6-yl)imidazo[1,2-a]pyridin-3-yl]-N-(2-methoxyphenyl)pyrimidin-2-amine]
24 | > 8.00 | CN(C)CCc1cccc(Nc2nccc(-c3c(-c4ccc5nc(Cc6ccccc6Cl)[nH]c5c4)nc4sccn34)n2)c1 [Example 9, 4-{6-[2-(2-chlorobenzyl)-1H-benzimidazol-6-yl]imidazo[2,1-b][1,3]thiazol-5-yl}-N-{3-[2-(dimethylamino)ethyl]phenyl}pyrimidin-2-amine]
25 | 7.00 to 7.29 | COc1ccccc1Cc1nc2ccc(-c3nc4ccccn4c3-c3ccnc(Nc4ccc(N5CCOCC5)cc4OC)n3)cc2[nH]1 [Example 20, 4-{2-[2-(2-methoxybenzyl)-1H-benzimidazol-6-yl]imidazo[1,2-a]pyridin-3-yl}-N-(2-methoxy-4-morpholin-4-ylphenyl)pyrimidin-2-amine]
